{"source": "the supplement of paper PMC10307832", "test_in_all_cases": "relative viability (nuclei count vs DMSO), 5 days (fraction); higher = more cells survive", "key": {"AZ628 + Decitabine": {"compound": "CC1=C(C=C(C=C1)NC(=O)C2=CC(=CC=C2)C(C)(C)C#N)NC3=CC4=C(C=C3)N=CN(C4=O)C [AZ628] + Nc1ncn([C@H]2C[C@H](O)[C@@H](CO)O2)c(=O)n1 [Decitabine] (partner 2 µM)", "summary_of_the_method": "(§1)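 A single step with final 0.05% Triton X-100, 1% formaldehyde and 1 ug/ml Hoechst fixed the cells and stained nuclei 5 days after treatment. Lung cancer cell lines in 1536-well plates had been treated by pin tool the day after seeding with one drug alone or a fixed anchor-drug dose plus five library-drug doses (not always all listed) in √10 steps, and nuclei were counted on 4× images. Relative viability is the ratio of nuclei in treated wells to nuclei in vehicle wells, taken as the median of duplicate plates.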"}, "[1]": {"compound": "C[As](C)SC[C@H](NC(=O)CC[C@H](N)C(=O)O)C(=O)NCC(=O)O [Darinaparsin] + CC(C)C[C@H](NC(=O)[C@H](Cc1ccccc1)NC(=O)c1cnccn1)B(O)O [Bortezomib] (partner 0.002 µM)", "summary_of_the_method": "as §1"}, "QS11 + Lapatinib": {"compound": "C1CC2=C(C1)C=C(C=C2)OC3=NC(=C4C(=N3)N(C=N4)CC5=CC=C(C=C5)C6=CC=CC=C6)N[C@@H](CC7=CC=CC=C7)CO [QS11] + CS(=O)(=O)CCNCc1ccc(-c2ccc3ncnc(Nc4ccc(OCc5cccc(F)c5)c(Cl)c4)c3c2)o1 [Lapatinib] (partner 2 µM)", "summary_of_the_method": "as §1"}, "[2]": {"compound": "C[As](C)SC[C@H](NC(=O)CC[C@H](N)C(=O)O)C(=O)NCC(=O)O [Darinaparsin] + Cc1cc(Nc2cc(N3CCN(C)CC3)nc(Sc3ccc(NC(=O)C4CC4)cc3)n2)n[nH]1 [Tozasertib] (partner 0.1 µM)", "summary_of_the_method": "as §1"}}}
{"cell line": "LCLC-97TM1", "values": [{"measurement": "relative viability", "setting": "AZ628 + Decitabine; first compound 0.08 µM", "value": 0.276}, {"measurement": "relative viability", "setting": "AZ628 + Decitabine; first compound 0.253 µM", "value": 0.265}, {"measurement": "relative viability", "setting": "AZ628 + Decitabine; first compound 0.8 µM", "value": 0.257}, {"measurement": "relative viability", "setting": "AZ628 + Decitabine; first compound 2.53 µM", "value": 0.199}, {"measurement": "relative viability", "setting": "AZ628 + Decitabine; first compound 8 µM", "value": 0.13}, {"measurement": "relative viability", "setting": "[1]; first compound 0.08 µM", "value": 0.765}, {"measurement": "relative viability", "setting": "[1]; first compound 0.8 µM", "value": 0.513}, {"measurement": "relative viability", "setting": "[1]; first compound 2.53 µM", "value": 0.416}, {"measurement": "relative viability", "setting": "[1]; first compound 8 µM", "value": 0.481}, {"measurement": "relative viability", "setting": "QS11 + Lapatinib; first compound 0.08 µM", "value": 0.484}, {"measurement": "relative viability", "setting": "QS11 + Lapatinib; first compound 0.253 µM", "value": 1.12}, {"measurement": "relative viability", "setting": "QS11 + Lapatinib; first compound 0.8 µM", "value": 0.96}, {"measurement": "relative viability", "setting": "QS11 + Lapatinib; first compound 2.53 µM", "value": 1.24}, {"measurement": "relative viability", "setting": "QS11 + Lapatinib; first compound 8 µM", "value": 0.673}, {"measurement": "relative viability", "setting": "[2]; first compound 0.08 µM", "value": 0.215}, {"measurement": "relative viability", "setting": "[2]; first compound 0.8 µM", "value": 0.199}, {"measurement": "relative viability", "setting": "[2]; first compound 2.53 µM", "value": 0.194}, {"measurement": "relative viability", "setting": "[2]; first compound 8 µM", "value": 0.197}]}
